Our source for the IC50 and Ki values is patent publication US12528812B2 (Genentech, Inc., priority 2020, dated 2026).

The subject of assay [1] is IL-13-stimulated STAT6 phosphorylation in human lung bronchial epithelial BEAS-2B cell line. In words: P-STAT6 BEAS-2B + IL-13 cell assay. It is filed as cell-based. The settings on record: Homo sapiens, BEAS-2B, BEAS2B cells, IL13 stimulation; read-out: Cellular JAK1 PSTAT6 BEAS2B + IL13. The method, boiled down:
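BEAS-2B cells grown 48 h at 37 °C, pre-treated 1 h with compound (10-point 1:2 dilution curve), then stimulated 15 min with human recombinant IL-13 (250 ng/mL stock). Lysate P-STAT6 (Tyr641) read by MSD sandwich ELISA with total-STAT6 capture; IC50 from four-parameter logistic fit of control-normalised data.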

For assay [2], the target named is Recombinant human JAK2 kinase domain protein (Residues 812-1132) (Homo sapiens, UniProt O60674). In words: JAK2 biochemical assay (LabChip mobility shift, Ki). The settings on record: Biochem JAK2 Ki.
Assay [3] deals with T1, recombinant human JAK1 kinase domain protein (Residues 854-1154) (Homo sapiens, UniProt P23458).
T1 construct: human JAK1 kinase domain protein (Residues 854-1154); purchased Proteros Biostructures GmbH (Martinsried, Germany); host or cells: insect cells
As to the kind of experiment: JAK1 biochemical assay (LabChip mobility shift, Ki). The settings on record: read-out: Biochem JAK1 Ki.

T1 sequence (P23458 854-1154): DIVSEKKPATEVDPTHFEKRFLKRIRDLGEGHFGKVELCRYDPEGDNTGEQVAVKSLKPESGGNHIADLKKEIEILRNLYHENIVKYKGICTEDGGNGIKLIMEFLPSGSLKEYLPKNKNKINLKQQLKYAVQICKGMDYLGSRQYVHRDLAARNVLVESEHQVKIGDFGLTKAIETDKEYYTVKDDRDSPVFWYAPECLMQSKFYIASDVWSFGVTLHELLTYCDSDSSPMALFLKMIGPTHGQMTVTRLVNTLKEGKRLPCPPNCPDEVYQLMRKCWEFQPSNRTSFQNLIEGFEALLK
Recombinant human JAK2 kinase domain protein (Residues 812-1132), sequence (O60674 812-1132): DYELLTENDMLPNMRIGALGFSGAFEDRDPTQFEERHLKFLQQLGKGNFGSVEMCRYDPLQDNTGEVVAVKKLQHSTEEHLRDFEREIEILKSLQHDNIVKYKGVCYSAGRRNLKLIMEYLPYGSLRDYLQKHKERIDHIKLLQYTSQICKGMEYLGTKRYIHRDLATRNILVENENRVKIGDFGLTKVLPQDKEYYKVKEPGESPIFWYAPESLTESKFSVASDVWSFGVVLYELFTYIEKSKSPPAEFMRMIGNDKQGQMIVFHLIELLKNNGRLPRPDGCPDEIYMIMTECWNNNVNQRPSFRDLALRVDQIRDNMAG

As to `CN1CC(O)(c2cc(Oc3ccc(OC(F)F)c(-c4nn(C)cc4NC(=O)c4cnn5cccnc45)c3)cc(C3CC3)c2)C1` [Example 110, N-[3-[5-[3-cyclopropyl-5-(3-hydroxy-l-methyl-azetidin-3-yl)phenoxy]-2-(difluoromethoxy)phenyl]-1-methyl-pyrazol-4-yl]pyrazolo[1,5-a]pyrimidine-3-carboxamide], in assay [1], the IC50 was 30 nM. Besides, the Ki in assay [2] amounted to 0.36 nM; in assay [3], 0.69 nM.
As to `CN(C)CCN(C)C(=O)c1cccc(Oc2ccc(OC(F)F)c(-c3nn(C)cc3NC(=O)c3cnn4cccnc34)c2)c1` [Example 206, N-[3-[2-(difluoromethoxy)-5-[3-[2-(dimethylamino)ethyl-methyl-carbamoyl]phenoxy]phenyl]-1-methyl-pyrazol-4-yl]pyrazolo[1,5-a]pyrimidine-3-carboxamide], in assay [1], the IC50 was determined as 45 nM. Moreover, the inhibition constant (Ki) in assay [2] stood at 0.88 nM; in assay [3], 0.89 nM.
Consider `Cc1cc(Oc2ccc(OC(F)F)c(-c3nn(C)cc3NC(=O)c3cnn4cccnc34)c2)ccc1C(=O)N1CCN(C)CC1` [Example 85, N-[3-[2-(difluoromethoxy)-5-[3-methyl-4-(4-methylpiperazine-1-carbonyl)phenoxy]phenyl]-1-methyl-pyrazol-4-yl]pyrazolo[1,5-a]pyrimidine-3-carboxamide], for which the IC50 in assay [1] was 110 nM. Moreover, the inhibition constant (Ki) in assay [2] stood at 0.4 nM; in assay [3], 1.3 nM.
Turning to `NCc1cccc(Oc2ccc(OC(F)F)c(-c3n[nH]cc3NC(=O)c3cnn4cccnc34)c2)c1F` [Example 24, N-[3-[5-[3-(aminomethyl)-2-fluoro-phenoxy]-2-(difluoromethoxy)phenyl]-1H-pyrazol-4-yl]pyrazolo[1,5-a]pyrimidine-3-carboxamide], in assay [1], the IC50 stood at 22 nM. Also, the values for the Ki in assay [2] and in assay [3] were 0.56 nM and 0.64 nM, respectively.
On the same counts, the results for `Cn1cc(NC(=O)c2cnn3cccnc23)c(-c2cc(Oc3cccc(CN4CCO[C@H](CO)C4)c3)ccc2OC(F)F)n1` (stereo in doubt) [Example 94, N-[3-[2-(difluoromethoxy)-5-[3-[[rac-(2R)-2-(hydroxymethyl)morpholin-4-yl]methyl]phenoxy]phenyl]-1-methyl-pyrazol-4-yl]pyrazolo[1,5-a]pyrimidine-3-carboxamide] are 40 nM, 1.1 nM and 1.7 nM.
As for `Cn1cc(NC(=O)c2cnn3cccnc23)c(-c2cc(Oc3cccc(CNC4COC4)c3)ccc2OC(F)F)n1` [Example 29, N-[3-[2-(difluoromethoxy)-5-[3-[(oxetan-3-ylamino)methyl]phenoxy]phenyl]-1-methyl-pyrazol-4-yl]pyrazolo[1,5-a]pyrimidine-3-carboxamide], the IC50 in assay [1] amounted to 62 nM. The inhibition constant Ki in assay [2] amounted to 0.72 nM; in assay [3], 1.2 nM.
As to `O=C(Nc1c[nH]nc1-c1cc(Oc2cccc(CNCCO)c2)ccc1OC(F)F)c1cnn2cccnc12` [Example 16, N-[3-[2-(difluoromethoxy)-5-[3-[(2-hydroxyethylamino)methyl]phenoxy]phenyl]-1H-pyrazol-4-yl]pyrazolo[1,5-a]pyrimidine-3-carboxamide], the IC50 in assay [1] worked out at 170 nM. Besides, the Ki in assay [2] is 0.19 nM; in assay [3], 0.22 nM.
As for `O=C(Nc1cn(C2COC2)nc1-c1cc(Oc2ccccc2)ccc1OC(F)F)c1cnn2cccnc12` [Example 56, N-[3-[2-(difluoromethoxy)-5-phenoxy-phenyl]-1-(oxetan-3-yl)pyrazol-4-yl]pyrazolo[1,5-a]pyrimidine-3-carboxamide], the IC50 in assay [1] is 15 nM. The inhibition constant Ki in assay [2] was 0.25 nM; in assay [3], 0.35 nM.
In the case of `CN1CCc2ccc(Oc3ccc(OC(F)F)c(-c4n[nH]cc4NC(=O)c4cnn5cccnc45)c3)cc2C1` [Example 36, N-[3-[2-(difluoromethoxy)-5-[(2-methyl-3,4-dihydro-1H-isoquinolin-7-yl)oxy]phenyl]-1H-pyrazol-4-yl]pyrazolo[1,5-a]pyrimidine-3-carboxamide], the IC50 in assay [1] was determined as 11 nM. Further, the Ki turned out to be 0.25 nM in assay [2] and 0.51 nM in assay [3].
Take `Cn1cc(NC(=O)c2cnn3cccnc23)c(-c2cc(Oc3cccc(C(=O)N4CCNCC4)c3)ccc2OC(F)F)n1` [Example 80, N-[3-[2-(difluoromethoxy)-5-[3-(piperazine-1-carbonyl)phenoxy]phenyl]-1-methyl-pyrazol-4-yl]pyrazolo[1,5-a]pyrimidine-3-carboxamide]: the IC50 in assay [1] was 61 nM. Moreover, the inhibitory constant (Ki) in assay [2] and in assay [3] was 0.35 nM throughout.
Turning to `O=C(Nc1c[nH]nc1-c1cc(Oc2cccc(OCC(F)(F)F)c2)ccc1OC(F)F)c1cnn2cccnc12` [Example 4, N-[3-[2-(difluoromethoxy)-5-[3-(2,2,2-trifluoroethoxy)phenoxy]phenyl]-1H-pyrazol-4-yl]pyrazolo[1,5-a]pyrimidine-3-carboxamide], the IC50 in assay [1] was 18 nM. Also, the Ki in assay [2] was determined as 0.7 nM; in assay [3], 1.1 nM.
Regarding `CN(C)CCn1cc(Oc2ccc(OC(F)F)c(-c3nn(C)cc3NC(=O)c3cnn4cccnc34)c2)cn1` [Example 73, N-[3-[2-(difluoromethoxy)-5-[1-[2-(dimethylamino)ethyl]pyrazol-4-yl]oxy-phenyl]-1-methyl-pyrazol-4-yl]pyrazolo[1,5-a]pyrimidine-3-carboxamide], the IC50 in assay [1] was found to be 95 nM. In addition, the inhibition constant Ki in assay [2] is 1.7 nM; in assay [3], 1.6 nM.
As to `Cc1c(Oc2ccc(OC(F)F)c(-c3nn(C)cc3NC(=O)c3cnn4cccnc34)c2)cnn1C` [Example 152, N-[3-[2-(difluoromethoxy)-5-(1,5-dimethylpyrazol-4-yl)oxy-phenyl]-1-methyl-pyrazol-4-yl]pyrazol[1,5-a]pyrimidine-3-carboxamide], in assay [1], the IC50 was 20 nM. The Ki came to 0.3 nM in assay [2] and 0.31 nM in assay [3].
`Cn1cc(NC(=O)c2cnn3cccnc23)c(-c2cc(Oc3cccc(-n4nccc4CN)c3)ccc2OC(F)F)n1` [Example 57, N-[3-[5-[3-[5-(aminomethyl)pyrazol-1-yl]phenoxy]-2-(difluoromethoxy)phenyl]-1-methyl-pyrazol-4-yl]pyrazolo[1,5-a]pyrimidine-3-carboxamide]: the IC50 in assay [1] stood at 37 nM. Moreover, the figures for the inhibition constant (Ki) in assay [2] and in assay [3] were 0.69 nM and 0.91 nM, respectively.
The like results for `CC(=O)c1cc(Oc2ccc(OC(F)F)c(-c3n[nH]cc3NC(=O)c3cnn4cccnc34)c2)ccc1C` [Example 44, N-[3-[5-(3-acetyl-4-methyl-phenoxy)-2-(difluoromethoxy)phenyl]-1H-pyrazol-4-yl]pyrazolo[1,5-a]pyrimidine-3-carboxamide] were, in that order, 5.7 nM, 0.24 nM and 0.45 nM.
Turning to `CC(C)N1CCC(O)(Cn2cc(Oc3ccc(OC(F)F)c(-c4nn(C)cc4NC(=O)c4cnn5cccnc45)c3)cn2)CC1` [Example 209, N-[3-[2-(difluoromethoxy)-5-[1-[(4-hydroxy-1-isopropyl-4-piperidyl)methyl]pyrazol-4-yl]oxy-phenyl]-1-methyl-pyrazol-4-yl]pyrazolo[1,5-a]pyrimidine-3-carboxamide], in assay [1], the IC50 is 190 nM. Also, the Ki in assay [2] worked out at 0.48 nM; in assay [3], 0.96 nM.
As to `Cn1cc(NC(=O)c2cnn3cccnc23)c(-c2cc(Oc3cnn([C@H]4CNCC[C@@H]4O)c3)ccc2OC(F)F)n1` (stereo in doubt) [Example 180, N-[3-[2-(difluoromethoxy)-5-[1-[rac-(3S,4S)-4-hydroxy-3-piperidyl]pyrazol-4-yl]oxy-phenyl]-1-methyl-pyrazol-4-yl]pyrazolo[1,5-a]pyrimidine-3-carboxamide], the IC50 in assay [1] is 95 nM. Moreover, the inhibition constant (Ki) in assay [2] was found to be 0.23 nM; in assay [3], 0.29 nM.
Take `Cn1cc(NC(=O)c2cnn3cccnc23)c(-c2cc(Oc3ccnc(CN)c3)ccc2OC(F)F)n1` [Example 40, N-[3-[5-[[2-(aminomethyl)-4-pyridyl]oxy]-2-(difluoromethoxy)phenyl]-1-methyl-pyrazol-4-yl]pyrazolo[1,5-a]pyrimidine-3-carboxamide]: the IC50 in assay [1] is 51 nM. Moreover, the Ki in assay [2] is 0.77 nM; in assay [3], 0.97 nM.
As for `Cn1cc(NC(=O)c2cnn3cccnc23)c(-c2cc(Oc3cnn(C4CCC4O)c3)ccc2OC(F)F)n1` (stereo not drawn) [Example 134, N-[3-[2-(difluoromethoxy)-5-[1-(2-hydroxycyclobutyl)pyrazol-4-yl]oxy-phenyl]-1-methyl-pyrazol-4-yl]pyrazolo[1,5-a]pyrimidine-3-carboxamide], in assay [1], the IC50 turned out to be 16 nM. Besides, the Ki worked out at 0.26 nM in assay [2] and 0.42 nM in assay [3].
On the same counts, the results for `CN1CC(N(C)C(=O)c2cccc(Oc3ccc(OC(F)F)c(-c4nn(C)cc4NC(=O)c4cnn5cccnc45)c3)c2)C1` [Example 205, N-[3-[2-(difluoromethoxy)-5-[3-[methyl-(1-methylazetidin-3-yl)carbamoyl]phenoxy]phenyl]-1-methyl-pyrazol-4-yl]pyrazolo[1,5-a]pyrimidine-3-carboxamide] are 40 nM, 0.79 nM and 0.74 nM.
Consider `Cc1ccc(Oc2ccc(OC(F)F)c(-c3nn(CCN[C@H]4CCCOC4)cc3NC(=O)c3cnn4cccnc34)c2)cc1C(=O)N(C)C` (racemic) [Example 83, N-[3-[2-(difluoromethoxy)-5-[3-(dimethylcarbamoyl)-4-methyl-phenoxy]phenyl]-1-[2-[[rac-(3R)-tetrahydropyran-3-yl]amino]ethyl]pyrazol-4-yl]pyrazolo[1,5-a]pyrimidine-3-carboxamide], for which, in assay [1], the IC50 was found to be 150 nM. Besides, the Ki was determined as 1 nM in assay [2] and 1.7 nM in assay [3].

The Ki is a measure of affinity in units of concentration, obtained from inhibition or displacement.
